{"source": "patent US20070238158A1", "about": "“Method for enhancing enzyme activity at elevated temperature” (The Institute of Physical and Chemical Research, priority 1996, published 2007)", "format_in_all_cases": "biochemical", "key": {"[1]": {"target": "T1, reverse transcriptase Superscript II (Moloney murine leukemia virus, UniProt P03355, D1183G/D1242N/E1221Q)", "T1 construct": "Superscript II is known as a reverse transcriptase (RNA-dependent DNA polymerase)", "test": "Reverse transcription activity of Superscript II at elevated temperature (cDNA synthesis from in vitro transcribed RNA, denaturing agarose electrophoresis, autoradiography)", "settings": "for electrophoretic pattern: full length cDNAs versus short products from prematurely terminated synthesis: reaction at 60° C., 20% of the substance and 20% glycerol in buffer (Lane 3 condition)", "description": "To examine reverse transcription activity of Superscript II at an elevated temperature, cDNAs were synthesized using RNAs transcribed in vitro by T7 RNA polymerase as template and the products were evaluated. By using RNAs as a template transcribed in vitro and evaluating the products by electrophoresis, reverse transcription efficiencies of the samples can be compared with one another and thereby non-specific transcription termination which leads to premature termination of reverse transcription and/or reduction of reaction efficiency can be evaluated. The template RNAs were prepared by transcribing pBluescript II SK, which had been cleaved into a linear form with a restriction enzyme NotI, with T7 RNA polymerase in vitro. This reaction was initiated from T7 promoter described in the instruction of pBluescript II SK.\nAs a control, the following standard buffer condition was used: 50 mM Tris-HCl, pH 8.3, 75 mM KCl, 3 mM MgCl2, 10 mM dithiothreitol, each 0.75 mM of dNTPs (dATP, dGTP, dCTP and dTTP).\nIn the above standard buffer condition, 1 μg of template RNA, 400 ng of primer (20mer SK primer, […]) and 200 units of Superscript II were prepared and the final volume was adjusted to 20 μl. 0.2 μl of [α-^32P] dGTP was used for labeling of reverse transcription products. The RNA and the primer were incubated at 65° C. before the other substrates were added. Then, the reaction was performed at 42° C. for 1 hour. The reaction products were subjected to denatured agarose electrophoresis and electrophoretic patterns were examined by autoradiography to evaluate recoveries of full length cDNAs and rates of short products obtained from incomplete elongation. The results are shown in Lane 1 of FIG. 1.\nThe following buffer condition for reverse transcription was used to verify that addition of oligosaccharide stabilizes the enzyme reaction: 50 mM Tris-HCl, pH 8.3, 75 mM KCl, 3 mM MgCl2, 10 mM dithiothreitol, each 0.75 mM of dNTPs (dATP, dGTP, dCTP, dTTP), 20% (w/v) trehalose and 20% (v/v) glycerol.\n1 μg of template RNA, 400 ng of primer (20 mer SK primer) and 200 units of Superscript II were reacted in 24 μl of aqueous solution under the above buffer condition. 0.2 μl of [α-^32P] dGTP was used for labeling of reverse transcription products. […] The primer and the template RNAs were annealed at 37° C. for 2 minutes and the enzyme activity was measured at 60° C.\nThe reaction products were subjected to denaturing agarose electrophoresis as described above, and electrophoretic patterns were examined by autoradiography to evaluate recoveries of full length cDNAs and rates of short products obtained from incomplete elongation."}, "restriction enzyme Sty I": {"tested_on": "restriction enzyme Sty I", "test": "Sty I restriction enzyme digestion of λ DNA at 37-60° C. (agarose gel, image analysis of 1 kbp band)", "settings": "suitable concentration; betaine 0-0.6M or sarcosine 0-3.6M; 37, 45, 50, 55 or 60° C. for 1 hour", "description": "Reaction solutions (20 μl each) containing a restriction enzyme, Sty I 0.5 units, its substrate, λ DNA 0.5 μg and betaine 0-0.6M or sarcosine 0-3.6M were incubated at 37, 45, 50, 55 or 60° C. for 1 hour. In order to prevent initiation of enzyme reaction before the incubation, the samples were quickly prepared on ice. Upon incubation, 0.25% bromophenol blue, 0.26% XC (xylene cyanol), 30% glycerol and 120 mM EDTA (4 μl) was added to the reaction solution to terminate the reaction. The resulting solution was heated at […] for 5 minutes to melt cos sites and subjected to electrophoresis using 0.8% agarose gel containing 0.05% EtBr.\nAfter electrophoresis, image analysis of the gels was conducted. Enzyme activity was represented by comparing strength of bands appeared at 1 kbp (with arrow). Regarding the samples using betaine, the standard (100) is the band strength obtained from the sample using 0 M of betaine and incubated at 37° C. Regarding the samples using sarcosine, the standard (100) is the band strength obtained from the sample using 0 M of sarcosine and incubated at 37° C."}, "[2]": {"target": "T1, reverse transcriptase Superscript II", "test": "Reverse transcription activity of Superscript II at elevated temperature (cDNA synthesis from in vitro transcribed RNA, denaturing agarose electrophoresis, autoradiography)"}}, "data": [{"compound": "O=C(CO)[C@@H](O)[C@H](O)[C@H](O)CO", "note": "[levulose]", "values": [{"measurement": "electrophoretic pattern: full length cDNAs versus short products from prematurely terminated synthesis", "setting": "[1]", "value": "the amount of products obtained from prematurely terminated synthesis became very small and full length products were synthesized"}]}, {"compound": "OC[C@H]1O[C@H](O[C@H]2[C@H](O)[C@@H](O)C(O)O[C@@H]2CO)[C@H](O)[C@@H](O)[C@@H]1O", "note": "(mixture of isomers) [maltose]", "values": [{"measurement": "electrophoretic pattern: full length cDNAs versus short products from prematurely terminated synthesis", "setting": "[1]", "value": "the amount of products obtained from prematurely terminated synthesis became very small and full length products were synthesized"}]}, {"compound": "OC[C@@H](O)[C@@H](O)[C@H](O)[C@@H](O)CO", "note": "[sorbitol]", "values": [{"measurement": "electrophoretic pattern: full length cDNAs versus short products from prematurely terminated synthesis", "setting": "[1]", "value": "the amount of products obtained from prematurely terminated synthesis became very small and full length products were synthesized"}]}, {"compound": "Triton X100", "values": [{"measurement": "amount of incomplete reverse transcription products when added to the Lane 3 condition", "setting": "[1]; 60° C., 0.05% Triton X100 plus 20% trehalose and 20% glycerol (Lane 4)", "value": "further reduced"}, {"measurement": "effect on enzyme activity when added to the Lane 3 condition", "setting": "[1]; 60° C., additive plus 20% trehalose and 20% glycerol, BSA 0.125 μg/μl (Lane 5), Triton X100 0.05% (Lane 4)", "value": "the whole activity of the reverse transcriptase was slightly reduced"}]}, {"compound": "OC[C@@H](O)[C@H](O)[C@@H](O)CO", "note": "[xylitol]", "values": [{"measurement": "electrophoretic pattern: full length cDNAs versus short products from prematurely terminated synthesis", "setting": "[1]", "value": "the amount of products obtained from prematurely terminated synthesis became very small and full length products were synthesized"}]}, {"compound": "CNCC(=O)O", "note": "[sarcosine]", "values": [{"measurement": "thermal activation of restriction enzyme (relative activity of Sty I)", "setting": "restriction enzyme Sty I", "value": "thermally activated"}]}, {"compound": "OC[C@@H](O)C(O)[C@H](O)CO", "note": "[arabitol]", "values": [{"measurement": "electrophoretic pattern: full length cDNAs versus short products from prematurely terminated synthesis", "setting": "[1]", "value": "the amount of products obtained from prematurely terminated synthesis became very small and full length products were synthesized"}]}, {"compound": "C[N+](C)(C)CC(=O)O", "note": "[betaine]", "values": [{"measurement": "thermal activation of restriction enzyme (relative activity of Sty I)", "setting": "restriction enzyme Sty I", "value": "thermally activated"}, {"measurement": "electrophoretic pattern: full length cDNAs versus short products from prematurely terminated synthesis", "setting": "[1]", "value": "the amount of products obtained from prematurely terminated synthesis became very small and full length products were synthesized"}]}, {"compound": "OC[C@H]1O[C@H](O[C@H]2O[C@H](CO)[C@@H](O)[C@H](O)[C@H]2O)[C@H](O)[C@@H](O)[C@@H]1O", "note": "[trehalose]", "values": [{"measurement": "electrophoretic pattern: full length cDNAs versus short products from prematurely terminated synthesis", "setting": "[1]", "value": "the amount of products obtained from prematurely terminated synthesis became very small and full length products were synthesized"}, {"measurement": "Superscript II activity compared with control reaction in standard buffer", "setting": "[2]; normal temperature (42° C.), 20% (w/v) trehalose and 20% (v/v) glycerol", "value": "higher activity than the control reaction"}, {"measurement": "electrophoretic pattern: products from premature termination of reverse transcription", "setting": "[2]; reaction at 42° C., 20% trehalose and 20% glycerol (Lane 2)", "value": "products resulted from premature termination as mentioned above were also observed"}]}]}
